According to US11851446B2, “Probes for imaging Huntingtin protein” (CHDI Foundation, Inc., priority 2014, dated 2023):
pIC50: −log10 of the molar value.

Assays:
Q46 protein aggregates = target: T1, Q46 protein aggregates (Homo sapiens, UniProt P42858, INS38QQQQQQQQQQQQQQQQQQQQQQQQQ); assay: Q46 Radioligand Binding Assay (RBA); settings: displacement of 10 nM [3H3]MK-3328 from 5 μM aggregated Q46 protein, 60 minutes at 37° C.
T1 construct: fused on or other part: GST at the N-terminus, cut off by thrombin before the test to start aggregation
T1 sequence (P42858 with tags, fused parts or gaps with the stated changes): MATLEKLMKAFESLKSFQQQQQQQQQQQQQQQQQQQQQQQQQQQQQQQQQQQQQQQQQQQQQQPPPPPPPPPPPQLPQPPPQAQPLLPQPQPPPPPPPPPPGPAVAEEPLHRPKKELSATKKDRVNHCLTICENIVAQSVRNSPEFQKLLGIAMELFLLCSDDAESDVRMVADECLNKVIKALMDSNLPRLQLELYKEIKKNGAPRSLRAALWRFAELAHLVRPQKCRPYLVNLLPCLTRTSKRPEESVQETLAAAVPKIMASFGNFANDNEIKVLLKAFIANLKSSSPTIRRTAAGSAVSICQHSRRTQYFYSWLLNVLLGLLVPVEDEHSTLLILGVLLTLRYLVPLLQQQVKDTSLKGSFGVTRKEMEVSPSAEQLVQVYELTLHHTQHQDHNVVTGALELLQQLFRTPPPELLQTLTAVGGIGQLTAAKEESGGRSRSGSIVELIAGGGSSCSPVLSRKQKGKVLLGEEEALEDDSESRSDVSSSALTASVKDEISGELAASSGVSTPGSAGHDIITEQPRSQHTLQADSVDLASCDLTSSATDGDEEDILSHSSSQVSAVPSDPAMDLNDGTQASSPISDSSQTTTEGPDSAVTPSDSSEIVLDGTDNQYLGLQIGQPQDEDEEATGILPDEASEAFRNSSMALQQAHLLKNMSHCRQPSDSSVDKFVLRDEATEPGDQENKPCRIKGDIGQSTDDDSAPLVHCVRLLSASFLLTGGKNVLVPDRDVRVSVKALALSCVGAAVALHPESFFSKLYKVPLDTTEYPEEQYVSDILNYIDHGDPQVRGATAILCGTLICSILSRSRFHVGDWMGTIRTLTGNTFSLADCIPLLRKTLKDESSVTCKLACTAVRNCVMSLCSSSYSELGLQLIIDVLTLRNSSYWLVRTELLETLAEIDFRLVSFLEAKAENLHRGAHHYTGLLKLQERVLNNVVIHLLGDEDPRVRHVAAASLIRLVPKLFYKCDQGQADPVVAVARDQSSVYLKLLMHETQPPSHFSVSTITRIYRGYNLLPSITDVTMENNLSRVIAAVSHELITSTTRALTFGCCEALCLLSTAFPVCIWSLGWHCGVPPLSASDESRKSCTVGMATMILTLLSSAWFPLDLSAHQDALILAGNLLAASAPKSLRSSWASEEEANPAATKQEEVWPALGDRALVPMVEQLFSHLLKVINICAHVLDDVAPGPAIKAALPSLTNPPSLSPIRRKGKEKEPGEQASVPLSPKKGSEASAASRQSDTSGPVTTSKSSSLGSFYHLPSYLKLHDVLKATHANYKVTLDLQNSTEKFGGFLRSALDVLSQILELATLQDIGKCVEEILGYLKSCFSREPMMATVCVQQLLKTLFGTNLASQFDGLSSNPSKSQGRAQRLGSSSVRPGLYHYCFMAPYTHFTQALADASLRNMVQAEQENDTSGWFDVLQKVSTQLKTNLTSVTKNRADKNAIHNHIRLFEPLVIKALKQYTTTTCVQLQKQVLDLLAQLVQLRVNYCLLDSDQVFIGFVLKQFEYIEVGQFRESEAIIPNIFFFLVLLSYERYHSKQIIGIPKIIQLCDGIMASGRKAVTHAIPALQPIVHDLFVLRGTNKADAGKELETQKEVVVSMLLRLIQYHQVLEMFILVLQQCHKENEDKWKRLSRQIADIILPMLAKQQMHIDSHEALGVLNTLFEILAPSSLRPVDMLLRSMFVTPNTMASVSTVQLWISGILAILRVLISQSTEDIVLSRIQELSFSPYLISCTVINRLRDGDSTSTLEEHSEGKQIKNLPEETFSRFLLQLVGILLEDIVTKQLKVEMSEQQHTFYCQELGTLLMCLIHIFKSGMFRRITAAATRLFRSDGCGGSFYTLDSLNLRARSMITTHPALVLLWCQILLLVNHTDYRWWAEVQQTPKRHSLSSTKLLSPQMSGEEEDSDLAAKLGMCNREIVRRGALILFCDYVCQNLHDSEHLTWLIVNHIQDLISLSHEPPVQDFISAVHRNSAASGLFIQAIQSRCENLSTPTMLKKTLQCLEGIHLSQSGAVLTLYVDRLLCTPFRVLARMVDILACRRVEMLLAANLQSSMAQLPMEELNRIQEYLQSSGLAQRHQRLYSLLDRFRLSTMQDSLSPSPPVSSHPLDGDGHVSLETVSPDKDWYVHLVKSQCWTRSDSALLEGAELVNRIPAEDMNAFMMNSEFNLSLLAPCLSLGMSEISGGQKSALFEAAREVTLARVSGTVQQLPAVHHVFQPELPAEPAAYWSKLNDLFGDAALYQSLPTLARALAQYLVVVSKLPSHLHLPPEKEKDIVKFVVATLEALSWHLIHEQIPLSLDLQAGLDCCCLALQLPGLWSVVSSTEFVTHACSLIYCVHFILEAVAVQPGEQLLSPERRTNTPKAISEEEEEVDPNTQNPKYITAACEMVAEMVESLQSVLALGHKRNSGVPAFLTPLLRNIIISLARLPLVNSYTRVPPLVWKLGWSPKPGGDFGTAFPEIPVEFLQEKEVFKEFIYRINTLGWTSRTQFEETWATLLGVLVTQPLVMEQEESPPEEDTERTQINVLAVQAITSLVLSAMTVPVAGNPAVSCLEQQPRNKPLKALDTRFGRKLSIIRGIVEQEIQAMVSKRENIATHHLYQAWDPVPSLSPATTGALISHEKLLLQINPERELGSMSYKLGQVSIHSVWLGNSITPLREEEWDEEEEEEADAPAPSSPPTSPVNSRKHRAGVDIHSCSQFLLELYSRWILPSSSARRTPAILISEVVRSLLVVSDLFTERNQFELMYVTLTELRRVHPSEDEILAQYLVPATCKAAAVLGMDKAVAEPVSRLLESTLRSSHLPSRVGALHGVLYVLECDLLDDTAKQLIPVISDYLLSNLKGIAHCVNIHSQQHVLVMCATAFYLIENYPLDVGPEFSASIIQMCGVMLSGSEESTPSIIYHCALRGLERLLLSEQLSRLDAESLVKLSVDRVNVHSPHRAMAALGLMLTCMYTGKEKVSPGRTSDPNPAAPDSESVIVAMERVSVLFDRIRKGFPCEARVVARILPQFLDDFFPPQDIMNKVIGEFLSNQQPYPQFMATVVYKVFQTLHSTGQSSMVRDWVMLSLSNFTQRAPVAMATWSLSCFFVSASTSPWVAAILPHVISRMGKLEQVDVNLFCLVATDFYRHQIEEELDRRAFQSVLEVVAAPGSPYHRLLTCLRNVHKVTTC
Description: Q46 Radioligand Binding Assay
For radioligand binding assays (RBA) GST-Q46 protein was generated based on a previous publication (Scherzinger et al. Cell, Vol. 90, 549-558, Aug. 8, 1997). For experiments 33 μM GST-Q46 was incubated with 150 μg/mL thrombin in assay buffer (150 mM NaCl, 50 mM Tris pH 8.0) and 2 mM CaCl2 for 16 hours at 37° C. Aggregated Q46 was pelleted by centrifugation for 5 minutes at 13,000 rpm in a bench top centrifuge and re-dissolved in the same volume of assay buffer. Test compounds were prepared by titration in DMSO at 11 concentrations from 33 μM to 1 nM. For the RBA, Q46 protein aggregates and test compounds were pre-incubated in assay buffer for 20 minutes at room temperature, in 140 μL/well in a 96-well plate (pp, round bottom). Then, ligand was added in 10 μL/well and incubated for 60 minutes at 37° C. Final assay concentrations were […] test compound, 5 μM Q46 protein (equivalent monomer concentration) and 10 nM ligand [^3H3]MK-3328 (Harrision et al., ACS Med. Chem. Lett., 2 (2011), pp 498-502). Samples were transferred onto GF/B filter plates and washed 2× with 200 μL PBS using a Filtermate Harvester. After drying filter plates for 1 hour at 37° C., the back of the plates was sealed with foil and 30 μl/well scintillation fluid (Packard MicroScint 40) was added, incubated for […] 15 minutes in the dark and counted in a TopCount reader. For analysis, replicate data from independent assay plates were normalized towards 0% and 100% inhibition using control wells of vehicle (0% inhibition) and 3 μM unlabelled MK-3328 (100% inhibition). IC50 values were determined with a sigmoidal inhibition model with four variables (top, bottom, slope, IC50) in a global fit using the normalized replicate data.

[1] = tested on: NFT in sections of AD brain tissue; settings: in vitro autoradiography and fluorescent staining; cited from earlier work
[2] = tested on: recombinant tau and amyloid β1-42 (Aβ1-42) aggregates; settings: higher affinity for the tau aggregates than Aβ1-42 aggregates; cited from earlier work

| pIC50 (Q46 protein aggregates) | Structure (SMILES) | binding to NFT in sections of AD brain tissue [1] | ratio of Kd values (tau aggregates vs Aβ1-42 aggregates) [2] |
| --- | --- | --- | --- |
| > 7.00 | CNc1c(-c2cccc(OCc3cccnc3)c2)nc2cc(C#N)ccn12 [3-(methylamino)-2-[3-(pyridin-3-ylmethoxy)phenyl]imidazo[1,2-a]pyridine-7-carbonitrile] |  |  |
| > 7.00 | CNc1c(-c2ccc(-c3cnccn3)cc2)nc2cc(C#N)ccn12 [3-(methylamino)-2-[4-(pyrazin-2-yl)phenyl]imidazo[1,2-a]pyridine-7-carbonitrile] |  |  |
| > 7.00 | CNc1c(-c2ccc(OCc3cccnc3)cc2)nc2cc(C#N)ccn12 [3-(methylamino)-2-[4-(pyridin-3-ylmethoxy)phenyl]imidazo[1,2-a]pyridine-7-carbonitrile] |  |  |
| > 7.00 | CNc1c(-c2cc3cc(OCc4cccnc4)ccc3o2)nc2cc(C#N)ccn12 [3-(methylamino)-2-[5-(pyridin-3-ylmethoxy)-1-benzofuran-2-yl]imidazo[1,2-a]pyridine-7-carbonitrile] |  |  |
| 6.30 to 7.00 | CNc1c(-c2cccc(COCc3cccnc3)c2)nc2cc(C#N)ccn12 [3-(methylamino)-2-{3-[(pyridin-3-ylmethoxy)methyl]phenyl}imidazo[1,2-a]pyridine-7-carbonitrile] |  |  |
| 6.30 to 7.00 | CNc1c(-c2ccc(COCc3cccnc3)cc2)nc2cc(C#N)ccn12 [3-(methylamino)-2-{4-[(pyridin-3-ylmethoxy)methyl]phenyl}imidazo[1,2-a]pyridine-7-carbonitrile] |  |  |

Continued, compound first:

| Structure (SMILES) | pIC50 (Q46 protein aggregates) | binding to NFT in sections of AD brain tissue [1] | ratio of Kd values (tau aggregates vs Aβ1-42 aggregates) [2] |
| --- | --- | --- | --- |
| C#CCOc1ccc(-c2nc3cc(C#N)ccn3c2NC)cc1 [3-(methylamino)-2-[4-(prop-2-yn-1-yloxy)phenyl]imidazo[1,2-a]pyridine-7-carbonitrile] | 6.30 to 7.00 |  |  |
| COc1ccc2oc(-c3nc4cc(C#N)ccn4c3CN(C)C)cc2c1 [3-[(dimethylamino)methyl]-2-(5-methoxy-1-benzofuran-2-yl)imidazo[1,2-a]pyridine-7-carbonitrile] | 6.30 to 7.00 |  |  |
| COc1ccc2oc(-c3nc4cc(C#N)ccn4c3N)cc2c1 [3-amino-2-(5-methoxy-1-benzofuran-2-yl)imidazo[1,2-a]pyridine-7-carbonitrile] | > 7.00 |  |  |
| N#Cc1ccn2c(N)c(-c3cc4cc(OCCF)ccc4o3)nc2c1 [3-amino-2-[5-(2-fluoroethoxy)-1-benzofuran-2-yl]imidazo[1,2-a]pyridine-7-carbonitrile] | > 7.00 |  |  |
| COc1ccc2oc(-c3nc4cc(C#N)ccn4c3NCCN(C)C)cc2c1 [3-{[2-(dimethylamino)ethyl]amino}-2-(5-methoxy-1-benzofuran-2-yl)imidazo[1,2-a]pyridine-7-carbonitrile] | 6.30 to 7.00 |  |  |
| CNc1c(-c2cc3cc(OC)ccc3o2)nc2ccc(F)cn12 [6-fluoro-2-(5-methoxy-1-benzofuran-2-yl)-N-methylimidazo[1,2-a]pyridin-3-amine] | > 7.00 |  |  |
| CNc1c(-c2cc3cc(OC)ccc3o2)nc2cc(CN)ccn12 [7-(aminomethyl)-2-(5-methoxy-1-benzofuran-2-yl)-N-methylimidazo[1,2-a]pyridin-3-amine] | 6.30 to 7.00 |  |  |
| CNc1c(-c2cc3cc(OC)ccc3o2)nc2cc(Br)ccn12 [7-bromo-2-(5-methoxy-1-benzofuran-2-yl)-N-methylimidazo[1,2-a]pyridin-3-amine] | > 7.00 |  |  |
| CNc1c(-c2cc3cc(OC)ccc3o2)nc2cc(Cl)ccn12 [7-chloro-2-(5-methoxy-1-benzofuran-2-yl)-N-methylimidazo[1,2-a]pyridin-3-amine] | > 7.00 |  |  |
| C#Cc1ccn2c(NC)c(-c3cc4cc(OC)ccc4o3)nc2c1 [7-ethynyl-2-(5-methoxy-1-benzofuran-2-yl)-N-methylimidazo[1,2-a]pyridin-3-amine] | > 7.00 |  |  |
| CNc1c(-c2cc3cc(OC)ccc3o2)nc2cc(F)ccn12 [7-fluoro-2-(5-methoxy-1-benzofuran-2-yl)-N-methylimidazo[1,2-a]pyridin-3-amine] | > 7.00 |  |  |
| CNc1c(-c2cc3cc(OC)ccc3o2)nc2cc(OC)ccn12 [7-methoxy-2-(5-methoxy-1-benzofuran-2-yl)-N-methylimidazo[1,2-a]pyridin-3-amine] | > 7.00 |  |  |
| CN(C)c1ccc(/C=C/c2nc3ccc(I)cc3[nH]2)cc1 [SBIM-3, 4-[(E)-2-(6-iodo-1H-benzimidazol-2-yl)ethenyl]-N,N-dimethylaniline] |  | bound NFT | 2.73 |
| CNc1c(-c2cc3c(o2)CCN(C(=O)OC(C)(C)C)C3)nc2cc(C#N)ccn12 [tert-butyl 2-[7-cyano-3-(methylamino)imidazo[1,2-a]pyridin-2-yl]-4H,5H,6H,7H-furo[3,2-c]pyridine-5-carboxylate] | 6.30 to 7.00 |  |  |
